The values that follow come from patent US20030124585A1, “Type II gonadotropin-releasing hormone receptor and polynucleotides encoding therefor” (Medical Research Council, priority 2000, published 2003).

For assay [1], the target named is T1, Marmoset Type II GnRH-R (Callithrix jacchus, UniProt Q95MG6).
T1 construct: Full length marmoset Type II GnRH receptor was produced by PCR; expressed in transfected cells; host or cells: COS-7 cells, transient transfection (Superfect), plasmid pcDNA3.1+
T1 sequence (Q95MG6 1-380): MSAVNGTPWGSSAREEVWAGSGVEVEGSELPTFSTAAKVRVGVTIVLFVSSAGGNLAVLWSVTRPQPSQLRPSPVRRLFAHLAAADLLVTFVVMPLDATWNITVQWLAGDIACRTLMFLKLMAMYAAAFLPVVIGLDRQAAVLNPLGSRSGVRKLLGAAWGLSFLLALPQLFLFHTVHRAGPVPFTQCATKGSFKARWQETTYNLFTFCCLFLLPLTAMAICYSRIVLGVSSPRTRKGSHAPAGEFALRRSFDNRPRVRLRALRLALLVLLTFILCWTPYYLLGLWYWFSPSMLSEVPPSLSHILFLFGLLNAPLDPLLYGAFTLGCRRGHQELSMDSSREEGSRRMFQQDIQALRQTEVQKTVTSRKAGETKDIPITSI
The experiment in a line: Receptor binding, competition with 125I-[His5,D-Tyr6]GnRH, transfected COS-7 cells. The conditions noted are these: for IC50: s.e.m. On the procedure: (§1) Cell culture and transfection. COS-7 cells were cultured as previously described (20, 21). Transient transfections of COS-7 cells with human Type I GnRH receptor or marmoset Type II GnRH receptor, along with myc-tagged ERK2, JNK and p38α constructs were performed using Superfect (Qiagen) according to the manufacturer's protocol. All assays described were performed 48 h post transfection.
(§2) Receptor binding and inositol phosphate production.

Assay [2] has as its system Marmoset Type II GnRH-R. Described as above. Particulars: Type II versus Type I receptor; for Selectivity of the Type II receptor for the ligand (in words): binding, COS-7 cells. On the procedure: as §1, §2
In assay [3] the target is T2, human Type I GnRH receptor (Homo sapiens, UniProt P30968).
T2 construct: expressed in transfected cells; host or cells: COS-7 cells, transient transfection (Superfect)
T2 sequence (P30968 1-328): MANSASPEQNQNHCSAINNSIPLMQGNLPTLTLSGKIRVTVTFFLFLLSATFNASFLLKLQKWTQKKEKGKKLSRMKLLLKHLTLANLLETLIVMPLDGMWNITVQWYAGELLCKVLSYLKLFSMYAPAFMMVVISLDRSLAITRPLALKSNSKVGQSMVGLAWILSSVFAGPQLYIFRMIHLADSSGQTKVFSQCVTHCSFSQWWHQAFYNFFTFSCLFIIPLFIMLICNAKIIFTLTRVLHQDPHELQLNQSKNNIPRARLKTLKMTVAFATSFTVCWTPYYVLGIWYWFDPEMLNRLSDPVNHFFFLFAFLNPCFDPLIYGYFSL
Described as above. Particulars: for IC50: Table 1, s.e.m., n=3-6, read-out: Ligand binding (IC50) Human Type I. The method, then: as §1, §2

For assay [4], the target named is T1, Marmoset Type II GnRH-R. The experiment in a line: Total inositol phosphate production in transfected COS-7 cells. The format is cell-based. Particulars: for EC50: s.e.m. The method, then: as §1, §2
Assay [5] deals with T2, human Type I GnRH receptor. The assay is described as above. The format is cell-based. The conditions noted are these: for EC50: Table 1, s.e.m., n=3-6, read-out: InsP production (EC50) Human Type I. The method, then:
as §1, §2

In assay [6] the target is T3, marmoset Type II GnRH receptor (Callithrix jacchus, UniProt Q95MG6).
T3 construct: Full length marmoset Type II GnRH receptor was produced by PCR; expressed in transfected cells; host or cells: COS-7 cells, transient transfection (Superfect), plasmid pcDNA3.1+
T3 sequence (Q95MG6 1-380): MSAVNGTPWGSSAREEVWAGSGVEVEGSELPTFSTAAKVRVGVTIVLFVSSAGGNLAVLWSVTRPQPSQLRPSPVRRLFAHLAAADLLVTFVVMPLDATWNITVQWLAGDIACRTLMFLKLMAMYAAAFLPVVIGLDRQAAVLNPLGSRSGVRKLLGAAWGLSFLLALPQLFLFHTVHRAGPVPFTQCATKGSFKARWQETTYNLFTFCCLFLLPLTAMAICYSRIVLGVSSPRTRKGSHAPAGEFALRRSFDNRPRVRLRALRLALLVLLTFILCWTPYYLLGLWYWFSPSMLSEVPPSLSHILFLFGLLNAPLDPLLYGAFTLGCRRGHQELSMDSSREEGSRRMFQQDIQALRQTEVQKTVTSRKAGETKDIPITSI
The experiment in a line: Phospho-MAP kinase assay, p38α activation in transfected COS-7 cells. The format is cell-based. The conditions noted are these: 100 nM, FIG. 8c. On the procedure: as §1
(§3) Phospho-MAP kinase assay. […] After ligand stimulation, COS-7 cells were prepared for immunoprecipitation (23). Co-transfected myc-tagged MAP kinase constructs were immunoprecipitated from cell lysates by overnight incubation with myc-agarose slurry (Santa Cruz), washed, an equal volume of 2×Laemmli sample buffer added, resolved by SDS-PAGE and electrotransferred to PVDF membrane (NEN Life Sciences). Activated MAP kinase was detected using anti-phospho-ERK/JNK/p38a-kinase specific antisera (New England Biolabs), visualised by enzyme-linked chemifluorescence (Amersham-Pharmacia) and quantified using a phosphorimager. The degree of phosphorylated MAP kinase was normalised to the amount of unphosphorylated MAP kinase detected with specific antisera.

Assay [7] concerns FSH and LH secretion. The experiment in a line: Stimulation of LH and FSH in sheep (Soay ram model). The conditions noted are these: 10 μg dose, intravenous bolus, n=8. The format is in vivo. On the procedure: Stimulation of LH and FSH in sheep. […] The same animals (n=8) were used on the two occasions. The GnRHs were administered at doses of 250 ng/ram and 10 μg/ram in a cross-over design with a week between treatments to permit full recovery. The peptides were dissolved in 1 ml of 0.9% saline and given as an intravenous bolus. Blood samples were collected every 10 min, from 20 min before, until 2 h after the treatments and assayed by specific radioimmunoassays (24). The FSH and LH responses to the GnRH agonists were calculated as delta responses (2 h mean hormone concentration post treatment minus 20 min mean pre-treatment hormone concentration). […] This was assessed for each animal and then for the group (mean±SEM, n=8), under both LD and SD.

The test system of assay [8] is Type I receptor. Particulars: cited from earlier work.
Assay [9] deals with T2, human Type I GnRH receptor. In words: Phospho-MAP kinase assay, ERK2 activation in transfected COS-7 cells. The assay is classed as cell-based. Particulars: FIG. 8a. The method, then: as §1, §3
The mark [10] stands for this setting: FIG. 4, COS-7 cells, n=2, read-out: IC50, heterologous competition binding of 125I-[His5,D-Tyr6]GnRH.
The mark [11] stands for this setting: Table 1, n=3-6, read-out: Ligand binding (IC50) Marmoset Type II.
Where [12] appears, read: FIG. 5, COS-7 cells, n=2, read-out: EC50, total inositol phosphate production.
Where [13] appears, read: Table 1, n=3-6, read-out: InsP production (EC50) Marmoset Type II.

Structures are written as SMILES. Read-outs that look alike come from different tables or passages of the source. Square brackets hold non-standard residues; d marks the D form. Peptide text beside a SMILES is read from it. pGlu = O=C1CC[C@@H](C(=O)O)N1

For `NC(=O)CNC(=O)[C@@H]1CCCN1C(=O)[C@H](Cc1ccc(O)cc1)NC(=O)[C@H](Cc1c[nH]c2ccccc12)NC(=O)CNC(=O)[C@H](Cc1c[nH]cn1)NC(=O)[C@H](CO)NC(=O)[C@H](Cc1c[nH]c2ccccc12)NC(=O)[C@H](Cc1c[nH]cn1)NC(=O)[C@@H]1CCC(=O)N1` [GnRH II, [His^5,Trp^7,Tyr^8]GnRH I] ([pGlu]HWSHGWYPG-NH2; C-terminus assumed), in assay [1] (COS-7 cells), the “Receptor binding activity relative to mammalian GnRH I at the Type II receptor” value is listed as 40 fold. Further, the IC50 in assay [1] (setting [10]) was 1.3 ± 0.2 nM; in assay [1] (setting [11]) it was 1.07 ± 0.04 nM. Moreover, the “Affinity for the Type II receptor relative to the Type I receptor” value in assay [2] is on record as 24 fold. Besides, in assay [2], the “Selectivity of the Type II receptor for the ligand (in words)” value (from here on “Selectivity of the Type II receptor”) is “high selectivity”. In addition, the “Receptor binding activity as percent of mammalian GnRH I at the Type I receptor” value in [3] (COS-7 cells) was 10%. In addition, the “Inositol phosphate production activity relative to mammalian GnRH I at the Type II receptor” value in [4] (COS-7 cells) is 90 fold. For the same compound, the values for the EC50 in assay [4] (setting [12]) and in [4] (setting [13]) were 0.46 ± 0.12 nM and 0.45 ± 0.05 nM, respectively. For the same compound, the “Inositol phosphate production activity as percent of mammalian GnRH I at the Type I receptor” value in assay [5] (COS-7 cells) worked out at 9%. Besides, in [6], the “Activation of p38α MAP kinase (in words)” value was “selective and time-dependent activation”. The “Mean ratio of FSH to LH secretion relative to that induced by mammalian GnRH I” value in assay [7] (sexually active rams) is given as 2.14±0.29 times; in assay [7] (sexually quiescent rams), 2.02±0.34 times. Further, the “Affinity and potency as percent of mammalian GnRH I at the Type I receptor” value in assay [8] is at most 20%.
Regarding `CC(C)C[C@H](NC(=O)CNC(=O)[C@H](Cc1ccc(O)cc1)NC(=O)[C@H](CO)NC(=O)[C@H](Cc1c[nH]c2ccccc12)NC(=O)[C@H](Cc1c[nH]cn1)NC(=O)[C@@H]1CCC(=O)N1)C(=O)N[C@@H](CCCNC(=N)N)C(=O)N1CCC[C@H]1C(=O)NCC(N)=O` [GnRH I], the IC50 amounted to 51.7 ± 1.9 nM in [1] (setting [10]) and 42.6 ± 3.19 nM in assay [1] (setting [11]). Besides, the EC50 came to 33.2 ± 6.3 nM in assay [4] (setting [12]) and 40.5 ± 4.43 nM in assay [4] (setting [13]). The “Activation of ERK2 (in words)” value in assay [9] is given as “considerably more potent than GnRH II”.
On to `N=C(N)NCCC[C@@H](NC(=O)[C@H](Cc1c[nH]cn1)NC(=O)[C@H](CO)NC(=O)[C@H](Cc1c[nH]c2ccccc12)NC(=O)[C@H](Cc1c[nH]cn1)NC(=O)[C@@H]1CCC(=O)N1)C(=O)N[C@@H](Cc1c[nH]c2ccccc12)C(=O)N[C@@H](Cc1ccc(O)cc1)C(=O)N1CCC[C@H]1C(=O)NCC(N)=O` [[D-Arg^6] GnRH II, [D-Arg^6]GnRH II] ([pGlu]HWSH[dR]WYPG-NH2; C-terminus assumed), for which the concentration for half-maximal inhibition (IC50) is 3.34 ± 0.06 nM in assay [1] (setting [11]) and 11.9 ± 0.35 nM in assay [3]. In addition, the “Selectivity of the Type II receptor” value in assay [2] is listed as “more selective”. The EC50 in assay [4] (setting [12]) was 1.1 ± 0.23 nM; in [4] (setting [13]), 2.39 ± 0.64 nM; in assay [5], 3.8 ± 0.71 nM.
In the case of `CC(C)C[C@H](NC(=O)[C@H](Cc1c[nH]c2ccccc12)NC(=O)CNC(=O)[C@H](Cc1ccc(O)cc1)NC(=O)[C@H](CO)NC(=O)[C@H](Cc1c[nH]c2ccccc12)NC(=O)[C@H](Cc1c[nH]cn1)NC(=O)[C@@H]1CCC(=O)N1)C(=O)N1CCC[C@H]1C(=O)NCC(N)=O` [sGnRH, [Trp^7,Leu^8]GnRH I] ([pGlu]HWSYGWLPG-NH2; C-terminus assumed), the results for the IC50 in [1] (setting [10]), in [1] (setting [11]) and in assay [3] were 9.8 ± 1.4 nM, 9.48 ± 2.17 nM and 244 ± 23.6 nM, respectively. In addition, the “Selectivity of the Type II receptor” value in assay [2] was “more selective”. In addition, the EC50 in assay [4] (setting [12]) is 8.7 ± 0.5 nM; in assay [4] (setting [13]), 5.99 ± 0.91 nM; in assay [5], 9.62 ± 3.5 nM.

As usually defined, the IC50 is the concentration needed to halve the response being measured. As usually defined, the EC50 is the concentration at which the effect is half-maximal.
